From US20170305857A1, “N-ACYLPIPERIDINE ETHER TROPOMYOSIN-RELATED KINASE INHIBITORS” (Pfizer Limited, priority 2014, published 2017)

Molecular target: T1, recombinant His-tagged cytoplasmic domains of TRKA receptor (NTRK1, PV3144, aa 441-796) (Homo sapiens, UniProt P04629)
T1 construct: aa 441-796; His; purchased Invitrogen PV3144
Assay: Isolated TRK enzyme assay (HTRF KinEASE-TK, PV3144 TrkA enzyme assay)
Format: biochemical
Conditions: 4 nM enzyme, 40 uM ATP, 35 min, arithmetic mean where more than one reading
Procedure, shortened: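 Enzyme and ATP were preincubated with compound for 20 min at room temperature in buffer with 10 mM MgCl and 2 mM DTT. TK-substrate-Biotin was then added (1 uM final) and the reaction run for an enzyme-specific optimized time. Phosphorylation was read by HTRF, and IC50 values came from sigmoid fits of percent inhibition normalized to plate controls, averaged over replicate readings.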

T1 sequence (P04629 441-796): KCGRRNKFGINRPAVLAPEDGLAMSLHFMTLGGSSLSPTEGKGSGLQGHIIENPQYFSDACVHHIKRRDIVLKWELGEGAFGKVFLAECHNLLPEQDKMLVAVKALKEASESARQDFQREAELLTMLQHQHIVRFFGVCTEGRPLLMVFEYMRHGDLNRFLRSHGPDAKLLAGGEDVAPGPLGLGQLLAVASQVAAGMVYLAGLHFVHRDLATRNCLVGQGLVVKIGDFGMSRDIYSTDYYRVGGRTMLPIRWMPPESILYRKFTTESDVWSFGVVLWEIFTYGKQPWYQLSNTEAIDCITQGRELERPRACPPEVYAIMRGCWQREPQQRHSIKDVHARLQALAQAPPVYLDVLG

| SMILES | IC50 [nM] |
| --- | --- |
| CC(C)(O)Cn1cc(-c2ccc(O[C@@H]3CCN(C(=O)Cc4ccc(OC5CC5)cn4)C[C@H]3F)c(C(N)=O)c2)cn1 (racemic) [Example 43] | 6.9 |
| COCc1ccc(-c2cnc(OC3CCN(C(=O)Cc4ccc(OC(F)(F)F)cc4)CC3)c(C(N)=O)c2)cc1 [Example 97, 5-[4-(methoxymethyl)phenyl]-2-[(1-{[4-(trifluoromethoxy)phenyl]acetyl}piperidin-4-yl)oxy]pyridine-3-carboxamide] | 7.4 |
| Cn1cnc(-c2ccc(O[C@@H]3CCN(C(=O)Cc4ccc(OC(F)(F)F)cc4)C[C@@H]3F)c(C(N)=O)c2)c1 (racemic) [Example 52, 1:1 racemic mixture of 2-(((3S,4R)-3-fluoro-1-(2-(4-(trifluoromethoxy)phenyl)acetyl)piperidin-4-yl)oxy)-5-(1-methyl-1H-imidazol-4-yl)benzamide + (3R,4S) enantiomer] | 4.5 |
| Cn1cc(-c2ccc(OC3CCN(C(=O)Cc4ccc(C(C)(C)C)nc4)CC3)c(C(N)=O)c2)cn1 [Example 18, 2-({1-[(6-tert-butylpyridin-3-yl)acetyl]piperidin-4-yl}oxy)-5-(1-methyl-1H-pyrazol-4-yl)benzamide] | 8.9 |
| CC(C)(O)Cn1cc(-c2cnc(O[C@@H]3CCN(C(=O)Cc4ccc(OC5CC5)cn4)C[C@@H]3F)c(C(N)=O)c2)cn1 [Example 32, 2-{[(3S,4R)-1-{[5-(cyclopropyloxy)pyridin-2-yl]acetyl}-3-fluoropiperidin-4-yl]oxy}-5-[1-(2-hydroxy-2-methylpropyl)-1H-pyrazol-4-yl]pyridine-3-carboxamide] | 7.2 |
| Cn1cc(-c2ccc(O[C@@H]3CCN(C(=O)Cc4ccc(OC(F)(F)F)cc4)C[C@@H]3F)c(C(N)=O)c2)cn1 [Example 74, 2-{[(3S,4R)-3-fluoro-1-{[4-(trifluoromethoxy)phenyl]acetyl}piperidin-4-yl]oxy}-5-(1-methyl-1H-pyrazol-4-yl)benzamide] | 0.9 |
| CC(C)(CO)n1cc(-c2ccc(OC3CCN(C(=O)Cc4ccc(OC(F)(F)F)cc4)CC3)c(C(N)=O)c2)cn1 [Example 62, 5-[1-(1-hydroxy-2-methylpropan-2-yl)-1H-pyrazol-4-yl]-2-[(1-{[4-(trifluoromethoxy)phenyl]acetyl}piperidin-4-yl)oxy]benzamide] | 4 |
| Cn1cncc1-c1ccc(OC2CCN(C(=O)Cc3ccc(OC(F)(F)F)cc3)CC2)c(C(N)=O)c1 [Example 145, 5-(1-methyl-1H-imidazol-5-yl)-2-[(1-{[4-(trifluoromethoxy)phenyl]acetyl}piperidin-4-yl)oxy]benzamide] | 17.1 |
| NC(=O)c1cc(-c2cnn(C3CCS(=O)(=O)C3)c2)ccc1OC1CCN(C(=O)Cc2ccc(OC(F)(F)F)cc2)CC1 (racemic) [Example 14, Racemic 5-[1-(1,1-dioxidotetrahydrothiophen-3-yl)-1H-pyrazol-4-yl]-2-[(1-{[4-(trifluoromethoxy)phenyl]acetyl}piperidin-4-yl)oxy]benzamide] | 2.4 |
| C[C@H](O)c1ccc(-c2cnc(OC3CCN(C(=O)Cc4ccc(OC(F)(F)F)cc4)CC3)c(C(N)=O)c2)cc1 [Example 152, 5-{4-[(1S)-1-hydroxyethyl]phenyl}-2-[(1-{[4-(trifluoromethoxy)phenyl]acetyl}piperidin-4-yl)oxy]pyridine-3-carboxamide] | 12.7 |
| NC(=O)c1cc(-c2cnn(CCO)c2)ccc1OC1CCN(C(=O)Cc2ccc(OC3CC3)cc2)CC1 [Example 130, 2-[(1-{[4-(cyclopropyloxy)phenyl]acetyl}piperidin-4-yl)oxy]-5-[1-(2-hydroxyethyl)-1H-pyrazol-4-yl]benzamide] | 5.5 |
| NC(=O)c1cc(-c2cn[nH]c2)cnc1O[C@H]1CCN(C(=O)Cc2ccc(OC3CC3)cn2)C[C@@H]1F [Example 80, 2-{[(3S,4S)-1-{[5-(cyclopropyloxy)pyridin-2-yl]acetyl}-3-fluoropiperidin-4-yl]oxy}-5-(1H-pyrazol-4-yl)pyridine-3-carboxamide] | 9.9 |
